Read-outs that look alike come from different tables or passages of the source.
What was measured:
[1] = tested on: host cell (skeletal myoblasts, bovine embryo skeletal muscle or C2C12); assay: Host cell toxicity in the cross-validation assay; format: cell-based; conditions: host cells in cross-validation assay, up to 10 µM
Description: (§1) Compound cross-validation in T. cruzi infected skeletal myoblasts (bovine embryo skeletal muscle or C2C12 lineage) was performed according to the protocol adapted from Engel and co-authors. Compounds stored as 10 mM stocks in DMSO were freshly diluted immediately prior to use. […] To prepare plates for the assay, skeletal myoblasts cultured in […] flasks were washed once with phosphate buffered saline (PBS) and then incubated with 0.25% trypsin in PBS for 1–3 minutes for detachment. The trypsin solution was removed and myoblasts were released from the flask bottom. Fresh medium was added and cell concentration was determined using a Neubauer hemocytometer. Myoblasts in 50 µl of culture medium were transferred to the clear-bottom wells of black 96-well plates (Greiner Bio-One, #655090) at a density of 1500 cells/well and infected with 50 µl trypomastigote culture at 7500 parasites/well (1∶5 ratio). The cells were allowed to adhere and spread for 24 h in the incubator before the media was removed and 100 µl of fresh medium containing 0, 0.04, 0.12, 0.37, 1.10, 3.30 or 10 µM of test compound was added to each well, followed by 72 h incubation at 37°C in an atmosphere of 5% CO2. Posaconazole was used as a positive control at the same concentrations as the test compounds. The cells were then fixed by adding 100 µl/well of 8% formaldehyde in PBS, resulting in a 4% working concentration of formaldehyde. To stain the nucleus of the host cell and the nucleus and kinetoplast of parasites, cell membranes were first permeabilized by washing once with 100 µl of 0.1% Triton X-100 in PBS, then treated for 1 h with 0.2 µg/ml of the fluorescent DNA dye, 4,6-diamidino-2-phenylindole (DAPI), followed by one wash with PBS. The fixed plates were kept at 4°C and protected from light until images were acquired.
(§2) Plates were allowed to equilibrate to room temperature and images were acquired by the IN Cell Analyzer 2000 (GE Healthcare) with a 20× objective, 5 fields per well, with 350/50 nm and 460/40 nm fluorescent excitation and emission filters. In the absence of drug cytotoxicity, at least 800 cells were imaged and counted per well. The images were processed and analyzed by IN Cell Analyzer Developer 1.6 software. The size parameters used to segment host and parasite organelles were 125 µm^2 for host nucleus, and 1–2 µm^2 for parasite nucleus/kinetoplast. Since DAPI also strongly stains host heterochromatin regions that display as shapes resembling parasites ( Figure 3 ), particles co-localized to host nuclei were excluded from quantification, while parasite aggregates near the host nucleus were counted as infected cells. Numbers of host cells and intracellular amastigotes were determined based on host cell and parasite nucleus and parasite kinetoplast quantification, providing a measure of growth inhibition during the first 72 h of post-infection treatment compared to untreated controls.
^aToxicity was assessed as the highest percentage of host cell growth inhibition caused by compound treatment. Scores are assigned as 1-<20%; 2-21-30%; 3- 31-40%; 4-41-50% and 5->50% growth inhibition.

T. cruzi CYP51 = target: T1, T. cruzi CYP51 (Trypanosoma cruzi, UniProt Q7Z1V1); assay: HTS spectral-mode binding screen, type II difference spectra scored 0-5
T1 construct: had the first 21 residues upstream of K22 replaced with the fragment MAKKKKK; His6 (C); made in house
T1 sequence (Q7Z1V1 15-481, looked up, natural form): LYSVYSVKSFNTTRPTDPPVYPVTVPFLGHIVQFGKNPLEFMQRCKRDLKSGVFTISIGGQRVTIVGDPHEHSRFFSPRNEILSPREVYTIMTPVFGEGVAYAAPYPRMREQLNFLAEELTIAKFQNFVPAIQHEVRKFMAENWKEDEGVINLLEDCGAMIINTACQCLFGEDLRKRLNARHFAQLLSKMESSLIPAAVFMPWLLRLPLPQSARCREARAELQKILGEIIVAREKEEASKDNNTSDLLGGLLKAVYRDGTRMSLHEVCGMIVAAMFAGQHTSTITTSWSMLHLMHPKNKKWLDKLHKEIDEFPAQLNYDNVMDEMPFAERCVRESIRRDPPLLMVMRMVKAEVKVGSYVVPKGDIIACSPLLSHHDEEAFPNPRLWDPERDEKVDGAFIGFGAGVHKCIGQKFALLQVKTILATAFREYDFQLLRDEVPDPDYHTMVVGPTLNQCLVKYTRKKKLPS

[2] = tested on: T. cruzi-infected skeletal myoblasts (intracellular amastigotes); assay: Hit cross-validation in T. cruzi-infected mammalian cells (image-based assay); format: cell-based, Trypanosoma cruzi; conditions: read-out: EC50 against T. cruzi parasites in HTS assay used to rank order the hits
Description: Bovine embryo skeletal muscle cells or mouse C2C12 myoblasts (ATCC#CRL-1772) used in the cross-validation assay, were cultivated respectively in RPMI 1640 medium supplemented with 5% horse serum and Dulbecco's Modified Eagle's Medium H-21 containing 4.5 g/l glucose (DMEM H-21) (Cell Culture Facility, UCSF), supplemented with 5% fetal bovine serum (FBS) (Sigma Chemical Co., St. Louis, MO, USA), 25 mM HEPES, 2 mM L-glutamine, 100 U/ml penicillin, 100 µg/ml streptomycin. T. cruzi CAI-72 trypomastigotes were obtained from supernatant of infected cultures 4 to 7 days post-infection. Cultures were maintained at 37°C in an atmosphere of 5% CO2. To harvest parasites, the supernatant of infected cultures containing released trypomastigotes was collected and centrifuged at 600 rpm for 5 min to remove cell debris; the pellet was then discarded and the trypomastigotes remaining in the media were concentrated by spinning the culture tubes at 3300 rpm for 15 minutes. The parasite pellet was re-suspended in 2–5 ml of fresh media. Trypomastigote concentration was determined using a Neubauer hemocytometer.
as §1
as §2, with “cells.” for “cells. Numbers of host cells and intracellular amastigotes were determined based on host cell and parasite nucleus and parasite kinetoplast quantification, providing a measure of growth inhibition during the first 72 h of post-infection treatment compared to untreated controls.”

[3] = type II difference spectra scored 0-5, second highest rated hit compound cluster
[4] = T. cruzi-infected myoblasts, 72 h treatment
[5] = Trypanosoma cruzi, Myoblast, 72 h, T. cruzi-infected myoblasts, 72 h treatment
[6] = spectral mode, four serial dilutions 2 µM to 12.5 µM, 2 µM CYP51
[7] = Trypanosoma cruzi, Myoblast, 72 h

CC1=C(C(=O)OC2CCCC2)C(c2ccncc2)C2=C(O)CC(C)(C)CC2=N1 (stereo not shown) [Compound 2]
Toxicity score (highest percentage of host cell growth inhibition) [1]: 4 (4-41-50%)
HTS binding score (T. cruzi CYP51; [3]): 4
EC50 [2, 4]: 0.306 µM
EC50 [2, 5]: 0.31 µM

Cc1ccc(OCCCCCn2ccnc2)cc1C [Compound 4]
Toxicity score (highest percentage of host cell growth inhibition) [1]: 3 (3- 31-40%)
EC50 [2, 4]: 0.548 µM
EC50 [2, 5]: 0.55 µM

N#CC1=C(N)OC2=C(C(=O)CC(c3ccccc3)C2)C1c1cccnc1 (stereo not shown) [Compound 7]
Toxicity score (highest percentage of host cell growth inhibition) [1]: 4 (4-41-50%)
HTS binding score (T. cruzi CYP51; [6]): 3
HTS binding score (T. cruzi CYP51; [3]): 3
EC50 [2, 4]: 0.667 µM
EC50 [2, 5]: 0.67 µM

CC(C)(C)/C(=C\n1ccnc1)c1ccc(C(F)(F)F)cc1 [Compound 8]
Toxicity score (highest percentage of host cell growth inhibition) [1]: 3 (3- 31-40%)
EC50 [2, 4]: 0.754 µM
EC50 [2, 5]: 0.75 µM

Cc1ccc(/C(=C\n2ccnc2)c2ccccc2)cc1 [Compound 10]
Toxicity score (highest percentage of host cell growth inhibition) [1]: 4 (4-41-50%)
EC50 [2, 4]: 0.92 µM
EC50 [2, 5]: 0.95 µM

OC(/C=C/c1ccccc1)(Cn1ccnc1)c1ccncc1 (stereo not shown) [Compound 12]
Toxicity score (highest percentage of host cell growth inhibition) [1]: 1 (1-<20%)
HTS binding score (T. cruzi CYP51; [6]): 1
EC50 [2, 7]: 1.1 µM

CCn1c(C(=O)NCc2cccnc2)cc2oc3ccccc3c21 [Compound 16]
Toxicity score (highest percentage of host cell growth inhibition) [1]: 4 (4-41-50%)
EC50 [2, 7]: 2.2 µM

Cc1ccc(C)c(OCCCCn2ccnc2)c1 [Compound 17]
HTS binding score (T. cruzi CYP51; [6]): 4
EC50 [2, 5]: 2.36 µM

O=C(NCCc1ccncc1)Nc1ccc(Cl)c(Cl)c1 [Compound 20]
Toxicity score (highest percentage of host cell growth inhibition) [1]: 1 (1-<20%)
EC50 [2, 7]: 2.55 µM

COc1cccc(/C=C/c2ccncc2)c1OC [Compound 24]
HTS binding score (T. cruzi CYP51; [6]): 2
EC50 [2, 7]: 2.98 µM

Brc1ccc(OCCCn2ccnc2)cc1 [Compound 25]
Toxicity score (highest percentage of host cell growth inhibition) [1]: 2 (2-21-30%)
EC50 [2, 5]: 3.66 µM

O=C(Cn1ccnc1)c1ccc(Cl)cc1Cl [Compound 26]
HTS binding score (T. cruzi CYP51; [6]): 2
EC50 [2, 7]: 4.53 µM

CCO/C(O)=C1/C(C)=NC2=C(C(=O)CC(c3ccccc3)C2)C1c1cccnc1 (stereo not shown) [Compound 28]
HTS binding score (T. cruzi CYP51; [3]): 4
EC50 [2, 5]: 5 µM

CCCC/N=C(\S)N1CCn2cccc2C1c1cccnc1 (stereo not shown) [Compound 30]
EC50 [2, 7]: 6.33 µM

O=S(=O)(NCc1csc(-c2cccnc2)n1)c1ccc(Br)cc1 [Compound 32]
Toxicity score (highest percentage of host cell growth inhibition) [1]: 2 (2-21-30%)
EC50 [2, 7]: 6.5 µM

C/C(=N\OC(=O)c1c(-c2ccccc2Cl)noc1C)c1ccncc1 [Compound 33]
Toxicity score (highest percentage of host cell growth inhibition) [1]: 3 (3- 31-40%)
EC50 [2, 7]: 6.78 µM

CC(C)/C=C1\CC/C(=C\c2ccncc2)C1=O [Compound 35]
Toxicity score (highest percentage of host cell growth inhibition) [1]: 1 (1-<20%)
EC50 [2, 7]: 7.15 µM

Oc1cccc(Nc2nc(-c3ccncc3)cs2)c1 [Compound 37]
Toxicity score (highest percentage of host cell growth inhibition) [1]: 4 (4-41-50%)
EC50 [2, 7]: 7.33 µM

Clc1ccc(Cl)c(SCCc2ccncc2)c1 [Compound 38]
Toxicity score (highest percentage of host cell growth inhibition) [1]: 2 (2-21-30%)
EC50 [2, 7]: 7.41 µM

Cc1ccc2nc(NC(=O)C3CCN(S(=O)(=O)c4cccnc4)CC3)sc2c1 [Compound 39]
Toxicity score (highest percentage of host cell growth inhibition) [1]: 1 (1-<20%)
EC50 [2, 7]: 7.64 µM

O=C(/C(=C/c1ccc(F)cc1)n1cncn1)c1ccc(Cl)cc1Cl [Compound 43]
Toxicity score (highest percentage of host cell growth inhibition) [1]: 3 (3- 31-40%)
EC50 [2, 7]: 7.8 µM

O=C(Cc1coc2ccc3ccccc3c12)NCc1cccnc1 [Compound 44]
Toxicity score (highest percentage of host cell growth inhibition) [1]: 2 (2-21-30%)
EC50 [2, 7]: 7.93 µM

Cc1ccc(C)c(CN2CCCCC2c2cccnc2)c1 (stereo not shown) [Compound 48]
HTS binding score (T. cruzi CYP51; [6]): 4
EC50 [2, 7]: 8.24 µM

O=C(NCc1cccnc1)/C(=C\c1cccc(Oc2ccccc2)c1)S(=O)(=O)c1ccccc1 [Compound 52]
Toxicity score (highest percentage of host cell growth inhibition) [1]: 5 (5->50% growth inhibition)
EC50 [2, 7]: 8.99 µM

CC1=Nc2ncnn2C(c2cccnc2)/C1=C(\O)OC1CCCCC1 (stereo not shown) [Compound 55]
Toxicity score (highest percentage of host cell growth inhibition) [1]: 1 (1-<20%)
EC50 [2, 7]: 9.54 µM

Reference: article PMC3409115, “Diverse Inhibitor Chemotypes Targeting Trypanosoma cruzi CYP51” (PLoS Neglected Tropical Diseases, 2012)
